Measurements as given in ChEMBL document CHEMBL4396971, “Discovery of potent and orally bioavailable indazole-based glucagon receptor antagonists for the treatment of type 2 diabetes” (Bioorg Med Chem Lett, 2019).

Assay: Stability in human liver microsomes assessed as parent compound remaining at 1 uM incubated for 10 mins
Type: ADME, Microsome
Settings: read-out: Stability

remaining at 10 min, 1 µM	Compound
110%	Cc1cc(C(F)(F)F)ccc1-c1ccc2nn([C@@H](CC(C)C)c3ccc(C(=O)NCCC(=O)O)cc3)cc2c1C

Assay: Stability in mouse liver microsomes assessed as parent compound remaining at 1 uM incubated for 10 mins
Type: ADME, Microsome
Settings: liver microsomes, read-out: Stability

remaining at 10 min, 1 µM	Compound
50%	Cc1cc(C(F)(F)F)ccc1-c1ccc2nn([C@@H](CC(C)C)c3ccc(C(=O)NCCC(=O)O)cc3)cc2c1C

Assay: Stability in rat liver microsomes assessed as parent compound remaining at 1 uM incubated for 10 mins
Type: ADME, Microsome
Settings: read-out: Stability

remaining at 10 min, 1 µM	Compound
107%	Cc1cc(C(F)(F)F)ccc1-c1ccc2nn([C@@H](CC(C)C)c3ccc(C(=O)NCCC(=O)O)cc3)cc2c1C

Assay: Stability in dog liver microsomes assessed as parent compound remaining at 1 uM incubated for 10 mins
Type: ADME, Canis lupus familiaris, Microsome
Settings: liver microsomes, read-out: Stability

remaining at 10 min, 1 µM	Compound
64%	Cc1cc(C(F)(F)F)ccc1-c1ccc2nn([C@@H](CC(C)C)c3ccc(C(=O)NCCC(=O)O)cc3)cc2c1C
